Results from patent US10077261B2, “Imidazolin-5-one derivative useful as FASN inhibitors for the treatment of cancer” (Janssen Pharmaceutica NV, priority 2012, dated 2018).
pIC50: −log10 of the molar value.

What was measured:
[1] = test system: PC-3M-Luc-C6 prostate cells; test: In vitro PC-3M-Luc-C6 prostate cell proliferation assay in lipid reduced medium; assay type: cell-based; details: 96 h, read-out: pIC50 PC-3M-Luc-C6 prostate cell (converted)
[2] = target: Fatty Acid Synthase Keto-reductase Domain (FASN KR) (Homo sapiens, UniProt P49327); test: Fatty Acid Synthase keto-reductase domain (FASN KR) inhibition, NADPH oxidation at 340 nm
Chain of Fatty Acid Synthase Keto-reductase Domain (FASN KR) (P49327 whole entry, the tested form may be a part): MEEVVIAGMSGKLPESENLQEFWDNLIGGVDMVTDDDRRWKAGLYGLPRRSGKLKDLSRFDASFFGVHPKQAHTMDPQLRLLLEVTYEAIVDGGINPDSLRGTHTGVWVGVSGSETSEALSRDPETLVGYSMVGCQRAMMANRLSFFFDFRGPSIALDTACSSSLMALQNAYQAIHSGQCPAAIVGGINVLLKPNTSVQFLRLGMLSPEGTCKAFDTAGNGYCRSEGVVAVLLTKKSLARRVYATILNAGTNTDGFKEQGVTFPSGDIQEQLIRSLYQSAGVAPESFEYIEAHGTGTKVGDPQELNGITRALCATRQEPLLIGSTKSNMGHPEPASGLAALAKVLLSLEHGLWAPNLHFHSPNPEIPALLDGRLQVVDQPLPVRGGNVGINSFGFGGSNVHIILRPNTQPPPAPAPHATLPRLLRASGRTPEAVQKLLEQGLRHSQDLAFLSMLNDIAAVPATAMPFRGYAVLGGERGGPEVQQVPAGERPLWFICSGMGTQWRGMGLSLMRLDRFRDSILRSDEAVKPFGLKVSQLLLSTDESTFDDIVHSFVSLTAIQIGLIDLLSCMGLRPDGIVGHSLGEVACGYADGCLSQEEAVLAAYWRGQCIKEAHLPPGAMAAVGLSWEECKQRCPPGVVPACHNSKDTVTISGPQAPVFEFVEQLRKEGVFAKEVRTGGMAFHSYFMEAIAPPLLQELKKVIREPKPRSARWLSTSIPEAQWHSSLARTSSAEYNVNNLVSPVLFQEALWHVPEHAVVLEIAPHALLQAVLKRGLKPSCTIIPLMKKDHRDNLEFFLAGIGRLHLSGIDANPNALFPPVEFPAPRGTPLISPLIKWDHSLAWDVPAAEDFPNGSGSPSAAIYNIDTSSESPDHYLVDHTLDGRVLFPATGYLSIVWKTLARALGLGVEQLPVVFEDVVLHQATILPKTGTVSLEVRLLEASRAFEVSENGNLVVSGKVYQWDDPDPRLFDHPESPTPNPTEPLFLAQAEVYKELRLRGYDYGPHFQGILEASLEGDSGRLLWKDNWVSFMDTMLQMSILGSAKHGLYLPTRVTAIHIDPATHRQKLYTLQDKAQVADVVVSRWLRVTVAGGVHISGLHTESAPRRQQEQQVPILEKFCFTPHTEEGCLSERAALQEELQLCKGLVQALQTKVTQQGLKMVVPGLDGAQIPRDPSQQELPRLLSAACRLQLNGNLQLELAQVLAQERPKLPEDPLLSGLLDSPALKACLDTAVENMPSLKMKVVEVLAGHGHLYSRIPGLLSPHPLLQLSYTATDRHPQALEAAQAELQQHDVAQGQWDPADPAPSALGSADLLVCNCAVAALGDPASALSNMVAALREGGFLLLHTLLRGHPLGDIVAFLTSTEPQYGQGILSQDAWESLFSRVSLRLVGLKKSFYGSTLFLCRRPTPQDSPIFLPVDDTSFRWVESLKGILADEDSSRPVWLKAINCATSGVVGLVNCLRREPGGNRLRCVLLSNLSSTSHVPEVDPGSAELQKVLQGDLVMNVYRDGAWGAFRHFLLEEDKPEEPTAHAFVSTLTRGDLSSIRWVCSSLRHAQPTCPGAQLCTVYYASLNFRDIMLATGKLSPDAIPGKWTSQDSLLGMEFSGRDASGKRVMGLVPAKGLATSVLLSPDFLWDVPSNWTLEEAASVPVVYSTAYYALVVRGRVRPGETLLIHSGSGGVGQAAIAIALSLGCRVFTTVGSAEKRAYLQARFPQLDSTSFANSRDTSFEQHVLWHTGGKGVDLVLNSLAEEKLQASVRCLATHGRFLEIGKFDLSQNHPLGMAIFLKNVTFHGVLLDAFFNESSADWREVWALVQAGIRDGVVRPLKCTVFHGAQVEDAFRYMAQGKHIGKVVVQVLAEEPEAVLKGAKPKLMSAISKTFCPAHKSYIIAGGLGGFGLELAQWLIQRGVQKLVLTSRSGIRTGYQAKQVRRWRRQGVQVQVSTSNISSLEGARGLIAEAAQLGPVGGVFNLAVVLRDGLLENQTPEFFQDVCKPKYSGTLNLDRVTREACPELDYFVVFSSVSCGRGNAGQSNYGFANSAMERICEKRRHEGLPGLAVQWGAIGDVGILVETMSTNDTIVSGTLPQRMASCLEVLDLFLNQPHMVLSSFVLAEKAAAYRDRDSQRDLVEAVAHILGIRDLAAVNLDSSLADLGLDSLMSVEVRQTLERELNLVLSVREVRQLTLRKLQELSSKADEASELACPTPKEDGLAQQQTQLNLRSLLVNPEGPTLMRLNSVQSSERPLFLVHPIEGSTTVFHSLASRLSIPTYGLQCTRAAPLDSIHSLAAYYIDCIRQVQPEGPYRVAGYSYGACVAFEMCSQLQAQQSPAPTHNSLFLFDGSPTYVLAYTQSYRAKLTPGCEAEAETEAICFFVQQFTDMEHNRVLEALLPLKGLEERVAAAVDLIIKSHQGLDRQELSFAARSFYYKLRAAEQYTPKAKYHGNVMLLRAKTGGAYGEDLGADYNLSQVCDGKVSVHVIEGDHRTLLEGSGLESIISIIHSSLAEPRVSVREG
Procedure: After 20 minutes incubation at room temperature the plate was measured again (T2).
The decrease in absorbance was calculated as (Absorbance before incubation T1)−(Absorbance following incubation T2).
A plot of Controlmin versus test compound concentration was fitted to a 4-parameter logistic curve using a non-linear least squares regression method.

[3] = test system: LNCaP-Vancouver prostate cells; test: In vitro LNCaP Vancouver prostate cell proliferation assay in lipid reduced medium; assay type: cell-based; details: read-out: pIC50 LNCaP_Vancouver prostate cell (converted)
[4] = target: T1, hFASN enzyme (full length) (Homo sapiens, UniProt P49327); test: Fatty Acid Synthase (FASN) inhibition scintillation proximity assay; assay type: biochemical; details: for inhibition at 10 µM: read-out: Human FASN % inhibition @ 10 μM, 10 μM test compound; for IC50: read-out: Human FASN pIC50 (converted)
T1 construct: 10 μL hFASN enzyme (full length, 300 ng, purified in house); made in house
T1 sequence (P49327 whole entry): as the sequence (P49327 whole entry, the tested form may be a part) above
Procedure, shortened: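 Purified full-length hFASN (300 ng) converts ^3H-acetyl-CoA plus malonyl-CoA to ^3H-palmitate in 100 mM KH2PO4 pH 7.5, 1 mM DTT; compounds tested at 0.01–30 μM. Product captured on streptavidin imaging beads and read by LEADseeker at 610 nm after ≥24 h; 4-parameter logistic fit versus controls.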

A2780 ovarian cells [5] = test: A2780 ovarian cell proliferation assay in lipid reduced medium, without palmitate (MTT); assay type: cell-based; details: Homo sapiens, A2780, 96 h; read-out: pIC50 A2780 Ovarian Cell, Without Palmitate (converted)
A2780 ovarian cells [6] = test: A2780 ovarian cell proliferation assay in lipid reduced medium, with palmitate (MTT); assay type: cell-based; details: Homo sapiens, A2780, 96 h; read-out: pIC50 A2780 Ovarian Cell, With Palmitate (converted)
Procedure, shortened: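 Seeded cells were switched next day to lipid-reduced serum, exposed to compound and 25 μM palmitate complexed with fatty-acid-free BSA, and incubated 96 h. Proliferation was then determined by MTT absorbance at 544 nm, with a best-fit curve of signal against concentration.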

| SMILES | IC50 [1] [nM] | pIC50 [2] | IC50 [3] [nM] | inhibition at 10 µM [4] [%] | IC50 [4] [nM] | IC50 (A2780 ovarian cells [5]) [nM] | IC50 (A2780 ovarian cells [6]) [nM] |
| --- | --- | --- | --- | --- | --- | --- | --- |
| Cc1cc(-c2ccc(-c3cnn(C4CCC4)c3)cc2)ccc1C1=NC2(CC2)C(=O)N1CC1CN(C(=O)C2(C)CC2)C1 [compound 338, 5-(4′-(1-cyclobutyl-1H-pyrazol-4-yl)-3-methyl-[1,1′-biphenyl]-4-yl)-6-((1-(1-methylcyclopropanecarbonyl)azetidin-3-yl)methyl)-4,6-diazaspiro[2.4]hept-4-en-7-one] | 19.1 | 6.83 | 126 | 106 | 43.7 | 21.9 | ~4270 |
| O=C(C1CC1)N1CC(CN2C(=O)C3(CC3)N=C2c2ccc(-c3ccc4cc(Cl)cnc4c3)cc2)C1 [compound 339, 5-(4-(3-chloroquinolin-7-yl)phenyl)-6-((1-(cyclopropanecarbonyl)azetidin-3-yl)methyl)-4,6-diazaspiro[2.4]hept-4-en-7-one] | 31.6 | 7.32 | 324 | 95 | 30.9 | 28.8 | ~2820 |
| Cc1cc(-c2ccc3cc(Cl)cnc3c2)ccc1C1=NC2(CC2)C(=O)N1CC1CN(C(=O)C2(C)CC2)C1 [compound 340, 5-(4-(3-chloroquinolin-7-yl)-2-methylphenyl)-6-((1-(1-methylcyclopropanecarbonyl)azetidin-3-yl)methyl)-4,6-diazaspiro[2.4]hept-4-en-7-one] | 18.2 | 7.42 | 93.3 | 101 | 28.8 | 15.5 | 6030 |
| O=C(C1CC1)N1CC[C@@H](CN2C(=O)C3(CC3)N=C2c2ccc(-c3ccc4[nH]ccc4c3)cn2)C1 [compound 341, (R)-5-(5-(1H-indol-5-yl)pyridin-2-yl)-6-((1-(cyclopropanecarbonyl)pyrrolidin-3-yl)methyl)-4,6-diazaspiro[2.4]hept-4-en-7-one] | 126 | 6.68 | 525 | 102 | 64.6 | 132 | > 6170 |
| O=C(C1CC1)N1CC[C@@H](CN2C(=O)C3(CC3)N=C2c2ccc(-c3ccc4sccc4c3)cn2)C1 [compound 342, (R)-5-(5-(benzo[b]thiophen-5-yl)pyridin-2-yl)-6-((1-(cyclopropanecarbonyl)pyrrolidin-3-yl)methyl)-4,6-diazaspiro[2.4]hept-4-en-7-one] | ~891 | 6.71 | 1620 | 106 | 69.2 | 1860 | > 10000 |
| O=C(C1CC1)N1CC(CN2C(=O)C3(CC3)N=C2c2ccc(-c3ccc4cccnc4c3)cc2F)C1 [compound 346, 6-((1-(cyclopropanecarbonyl)azetidin-3-yl)methyl)-5-(2-fluoro-4-(quinolin-7-yl)phenyl)-4,6-diazaqspiro[2.4]hept-4-en-7-one] | 22.4 | 7.27 | 43.7 | 97 | 49 | ~17 | > 10000 |
| Cn1cnc2cc(-c3ccc(C4=NC5(CC5)C(=O)N4CC4CN(C(=O)C5CC5)C4)c(F)c3)ccc21 [compound 348, 6-((1-(cyclopropanecarbonyl)azetidin-3-yl)methyl)-5-(2-fluoro-4-(1-methyl-1H-benzo[d]imidazol-5-yl)phenyl)-4,6-diazaspiro[2.4]hept-4-en-7-one] | 40.7 | 7.06 | 282 | 96 | 63.1 | 28.8 | > 10000 |
| O=C(C1CC1)N1CC(CN2C(=O)C3(CC3)N=C2c2ccc(-c3ccc4cc(F)ccc4c3)cc2F)C1 [compound 349, 6-((1-(cyclopropanecarbonyl)azetidin-3-yl)methyl)-5-(2-fluoro-4-(6-fluoronaphthalen-2-yl)phenyl)-4,6-diazaspiro[2.4]hept-4-en-7-one] | 33.9 | 7.23 | 138 | 102 | 16.6 | ~30.9 | > 10000 |
| O=C(C1CC1)N1CC(CN2C(=O)C3(CC3)N=C2c2ccc(-c3ccc4cccc(F)c4c3)cc2F)C1 [compound 350, 6-((1-(cyclopropanecarbonyl)azetidin-3-yl)methyl)-5-(2-fluoro-4-(8-fluoronaphthalen-2-yl)phenyl)-4,6-diazaspiro[2.4]hept-4-en-7-one] | 22.4 | 7.26 | 81.3 | 99 | 15.1 | ~28.2 | > 10000 |
| COc1ccc2cc(-c3ccc(C4=NC5(CC5)C(=O)N4CC4CN(C(=O)C5CC5)C4)c(F)c3)ccc2c1 [compound 351, 6-((1-(cyclopropanecarbonyl)azetidin-3-yl)methyl)-5-(2-fluoro-4-(6-methoxynaphthalen-2-yl)phenyl)-4,6-diazaspiro[2.4]hept-4-en-7-one] | 13.8 | 7.21 | 57.5 | 95 | 74.1 | 28.2 | 8510 |
| Cc1cc2cc(-c3ccc(C4=NC5(CC5)C(=O)N4CC4CN(C(=O)C5(C)CC5)C4)c(F)c3)ccc2s1 [compound 352, 5-(2-fluoro-4-(2-methylbenzo[b]thiophen-5-yl)phenyl)-6-((1-(1-methylcyclopropanecarbonyl)azetidin-3-yl)methyl)-4,6-diazaspiro[2.4]hept-4-en-7-one] | 162 | 7.03 | 562 | 94 | 74.1 | ~123 | 3020 |
| Cc1cc2cc(-c3ccc(C4=NC5(CC5)C(=O)N4CC4CN(C(=O)C5CC5)C4)c(F)c3)ccc2o1 [compound 353, 6-((1-(cyclopropanecarbonyl)azetidin-3-yl)methyl)-5-(2-fluoro-4-(2-methylbenzofuran-5-yl)phenyl)-4,6-diazaspiro[2.4]hept-4-en-7-one] | 437 | 6.97 | 1150 | 101 | 55 | 245 | 6030 |
| Cc1cc2cc(-c3ccc(C4=NC5(CC5)C(=O)N4C[C@@H]4CCN(C(=O)C5(O)CC5)C4)c(F)c3)ccc2s1 [compound 354, (R)-5-(2-fluoro-4-(2-methylbenzo[b]thiophen-5-yl)phenyl)-6-((1-(1-hydroxycyclopropanecarbonyl)pyrrolidin-3-yl)methyl)-4,6-diazaspiro[2.4]hept-4-en-7-one] | 35.5 | 6.95 | 245 | 100 | 50.1 | 30.9 | > 10000 |
| Cc1cc2cc(-c3ccc(C4=NC5(CC5)C(=O)N4C[C@@H]4CCN(C(=O)C5(O)CC5)C4)c(F)c3)ccc2o1 [compound 355, (R)-5-(2-fluoro-4-(2-methylbenzofuran-5-yl)phenyl)-6-((1-(1-hydroxycyclopropanecarbonyl)pyrrolidin-3-yl)methyl)-4,6-diazaspiro[2.4]hept-4-en-7-one] | 58.9 | 7.37 | 575 | 96 | 30.2 | 30.2 | > 10000 |
| Cc1nc2cc(-c3ccc(C4=NC5(CC5)C(=O)N4CC4CN(C(=O)C5CC5)C4)c(F)c3)ccc2s1 [compound 356, 6-((1-(cyclopropanecarbonyl)azetidin-3-yl)methyl)-5-(2-fluoro-4-(2-methylbenzo[d]thiazol-5-yl)phenyl)-4,6-diazaspiro[2.4]hept-4-en-7-one] | ~324 | 6.32 | 1480 | 99 | 102 | ~162 | > 10000 |
| Cn1ncc2cc(-c3ccc(C4=NC5(CC5)C(=O)N4CC4CN(C(=O)C5(C)CC5)C4)c(F)c3)ccc21 [compound 357, 5-(2-fluoro-4-(1-methyl-1H-indaozl-5-yl)phenyl)-6-((1-(1-methylcyclopropanecarbonyl)azetidin-3-yl)methyl)-4,6-diazaspiro[2.4]hept-4-en-7-one] | 25.1 | 7.20 | 372 | 97 | 39.8 | 22.4 | > 10000 |
| Cn1cc(-c2ccc(-c3ccc(C4=NC5(CC5)C(=O)N4CC4CN(C(=O)C5(C)CC5)C4)c(F)c3)cc2)cn1 [compound 358, 5-(3-fluoro-4′-(1-methyl-1H-pyrazol-4-yl)-[1,1′-biphenyl]-4-yl)-6-((1-(1-methylcyclopropanecarbonyl)azetidin-3-yl)methyl)-4,6-diazaspiro[2.4]hept-4-en-7-one] | 14.8 | 7.29 | 77.6 | 100 | 30.9 | 3.16 | > 10000 |
